# Laboratory results published in patent US12655116B2, “Substituted isophthalic acid diamides” (Bayer Aktiengesellschaft, priority 2020, dated 2026).
# Columns and labels:
# VERPE [1] = assay: Pre-emergence herbicidal action against VERPE; format: in vivo, Veronica persica; settings: dosage 80 g/ha
# Method in brief: (§1)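 Herbicidal effect was assessed 3 weeks after treatment by visual comparison with untreated controls, 100% denoting dead plants. Aqueous WP or EC preparations had been applied at 600 to 800 l/ha with 0.2% wetting agent to the soil covering freshly sown seeds.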
# AMARE [2] = assay: Pre-emergence herbicidal action against AMARE; format: in vivo, Amaranthus retroflexus; settings: for pest or weed control at 20 g/ha / pest or weed control at 80 g/ha: Amaranthus retroflexus, 504 h, scored visually after 3 weeks vs untreated controls, 100% = plants have died, 0% = like control plants
# Method in brief: as §1
# AVEFA = assay: Pre-emergence herbicidal action against AVEFA; format: in vivo, Avena fatua; settings: for pest or weed control at 80 g/ha / pest or weed control at 20 g/ha: Avena fatua, 504 h
# Method in brief: as §1
# ALOMY [3] = assay: Pre-emergence herbicidal action against ALOMY; format: in vivo, Alopecurus myosuroides; settings: pre-emergence
# Method in brief: as §1
# ABUTH [4] = assay: Pre-emergence herbicidal action against ABUTH; format: in vivo, Abutilon theophrasti
# Method in brief: as §1
# MATIN [5] = assay: Post-emergence herbicidal action against MATIN; format: in vivo, Matricaria inodora
# Method in brief: (§2)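 Post-emergence greenhouse test; one-leaf stage, 2–3 wk post-sowing, sandy loam. Foliar spray of WP/EC in water, 600–800 l/ha, +0.2% wetting agent. Visual % action at ~3 wk vs untreated (100% = plants dead).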
# PHBPU [6] = assay: Post-emergence herbicidal action against PHBPU; format: in vivo, Pharbitis purpurea
# Method in brief: as §2
# ECHCG [7] = assay: Post-emergence herbicidal action against ECHCG; format: in vivo, Echinochloa crus-galli
# Method in brief: as §2
# DIGSA [8] = assay: Pre-emergence herbicidal action against DIGSA; format: in vivo, Digitaria sanguinalis; settings: dosage 80 g/ha
# Method in brief: as §1
# PHBPU [9] = assay: Pre-emergence herbicidal action against PHBPU; format: in vivo, Pharbitis purpurea; settings: dosage 80 g/ha
# Method in brief: as §1
# LOLRI = assay: Pre-emergence herbicidal action against LOLRI; format: in vivo, Lolium rigidum; settings: for pest or weed control at 80 g/ha: Lolium rigidum, 504 h
# Source text: Seeds of monocotyledonous and dicotyledonous weed plants and crop plants are laid out in sandy loam soil in wood-fiber pots and covered with soil. The compounds of the invention, formulated in the form of wettable powders (WP) or as emulsion concentrates (EC), are then applied to the surface of the covering soil in the form of an aqueous suspension or emulsion at a water application rate equivalent to 600 to 800 l/ha, with addition of 0.2% wetting agent. After the treatment, the pots are placed in a greenhouse and kept under good growth conditions for the trial plants. The damage to the test plants is scored visually after a test period of 3 weeks by comparison with untreated controls (herbicidal activity in percent (%): 100% activity=the plants have died, 0% activity=like control plants). […] The tables below illustrate, in an illustrative manner, the post-emergence herbicidal action of the compounds of the invention, the herbicidal activity being stated in percent.
# MATIN [10] = assay: Pre-emergence herbicidal action against MATIN; format: in vivo, Matricaria inodora
# Method in brief: as §1
# ABUTH [11] = assay: Post-emergence herbicidal action against ABUTH; format: in vivo, Abutilon theophrasti; settings: visual assessment about 3 weeks after treatment vs untreated controls
# Method in brief: as §2
# AMARE [12] = assay: Post-emergence herbicidal action against AMARE; format: in vivo, Amaranthus retroflexus; settings: 20 g/ha, visual assessment about 3 weeks after treatment, 100% = plants have died, 0% = like control plants; for pest or weed control at 20 g/ha: Amaranthus retroflexus, 504 h
# Method in brief: as §2
# ECHCG [13] = assay: Pre-emergence herbicidal action against ECHCG; format: in vivo, Echinochloa crus-galli; settings: for pest or weed control at 80 g/ha: Echinochloa crus-galli, 504 h
# Method in brief: as §1
# DIGSA [14] = assay: Post-emergence herbicidal action against DIGSA; format: in vivo, Digitaria sanguinalis; settings: 20 g/ha
# Method in brief: as §2
# VERPE [15] = assay: Post-emergence herbicidal action against VERPE; format: in vivo, Veronica persica; settings: Veronica persica, 504 h, 20 g/ha
# Method in brief: as §2
# ALOMY [16] = assay: Post-emergence herbicidal action against ALOMY; format: in vivo, Alopecurus myosuroides; settings: Alopecurus myosuroides, 504 h, visual assessment about 3 weeks after treatment vs untreated controls; for pest or weed control at 5 g/ha: dosage 5 g/ha; for pest or weed control at 20 g/ha: dosage 20 g/ha
# Method in brief: as §2
# SETVI [17] = assay: Post-emergence herbicidal action against SETVI; format: in vivo, Setaria viridis; settings: Setaria viridis, 504 h; for pest or weed control at 20 g/ha: dosage 20 g/ha
# Method in brief: as §2
# SETVI [18] = assay: Pre-emergence herbicidal action against SETVI; format: in vivo, Setaria viridis; settings: Setaria viridis, 504 h; for pest or weed control at 80 g/ha: dosage 80 g/ha
# Method in brief: as §1
# VIOTR [19] = assay: Pre-emergence herbicidal action against VIOTR; format: in vivo, Viola tricolor; settings: Viola tricolor, 504 h; for pest or weed control at 80 g/ha: dosage 80 g/ha
# Method in brief: as §1
# VIOTR [20] = assay: Post-emergence herbicidal action against VIOTR; format: in vivo, Viola tricolor; settings: Viola tricolor, 504 h
# Method in brief: as §2
# [21] = 80 g/ha, scored visually after 3 weeks vs untreated controls (100% = plants have died, 0% = like control plants)
# [22] = pre-emergence, 20 g/ha, scored visually after 3 weeks, 100% = plants have died, 0% = like control plants
# [23] = Alopecurus myosuroides, 504 h, 80 g/ha, scored visually after 3 weeks vs untreated controls (100% = plants have died, 0% = like control plants)
# [24] = Abutilon theophrasti, 504 h, 80 g/ha, scored visually after 3 weeks vs untreated controls (100% = plants have died, 0% = like control plants)
# [25] = Tripleurospermum inodorum, 504 h, dosage 20 g/ha
# [26] = Ipomoea purpurea, 504 h, dosage 20 g/ha
# [27] = Echinochloa crus-galli, 504 h, dosage 20 g/ha
# [28] = Tripleurospermum inodorum, 504 h, dosage 80 g/ha
# [29] = Abutilon theophrasti, 504 h, dosage 20 g/ha
smiles,measurement,setting,value
Cn1nnnc1NC(=O)c1ccc(C(F)F)c(C(=O)NC2CCC2)c1Cl [Example 1-164],Pre-emergence action against VERPE in %,VERPE [1],90%
same,Pre-emergence action against AMARE in %,AMARE [2]; [21],100%
same,Pre-emergence action against AVEFA,"AVEFA; 20 g/ha, scored visually after 3 weeks, 100% = plants have died, 0% = like control plants",100%
same,Pre-emergence action against AVEFA in %,"AVEFA; 80 g/ha, pre-emergence",100%
same,Pre-emergence action against ALOMY (herbicidal activity),ALOMY [3]; [21],100%
same,Pre-emergence action against ABUTH (herbicidal activity),ABUTH [4]; [21],80%
same,Pre-emergence action against ABUTH (herbicidal activity in percent),"ABUTH [4]; dosage 20 g/ha, scored visually after 3 weeks vs untreated controls, 100% = plants have died, 0% = like control plants",80%
same,Post-emergence action against MATIN in %,MATIN [5]; dosage 5 g/ha,80%
same,Post-emergence action against MATIN in %,MATIN [5]; dosage 20 g/ha,80%
same,Post-emergence action against PHBPU in %,PHBPU [6]; dosage 5 g/ha,90%
same,Post-emergence action against PHBPU in %,PHBPU [6]; dosage 20 g/ha,90%
same,Post-emergence action against ECHCG in %,ECHCG [7]; dosage 5 g/ha,80%
same,Post-emergence action against ECHCG in %,ECHCG [7]; dosage 20 g/ha,90%
same,Pre-emergence action against DIGSA in %,DIGSA [8],80%
same,Pre-emergence action against PHBPU in %,PHBPU [9],100%
same,Pre-emergence action against LOLRI in %,LOLRI; 20 g/ha,100%
same,Pre-emergence action against LOLRI in %,LOLRI; 80 g/ha,100%
same,Pre-emergence action against MATIN in %,MATIN [10]; dosage 80 g/ha,100%
same,Post-emergence action against ABUTH in %,ABUTH [11]; dosage 5 g/ha,80%
same,Post-emergence action against ABUTH in %,ABUTH [11]; dosage 20 g/ha,80%
same,Post-emergence action at 20 g/ha against AMARE in %,AMARE [12],90%
same,Pre-emergence action against ECHCG in %,ECHCG [13]; 20 g/ha,100%
same,Pre-emergence action against ECHCG in %,ECHCG [13]; 80 g/ha,100%
same,Post-emergence action against DIGSA,DIGSA [14],80%
CNC(=O)c1c(I)ccc(C(=O)Nc2nnnn2C)c1Cl [Example 1-195],pest or weed control at 20 g/ha,VERPE [15],80%
same,pest or weed control at 20 g/ha,AMARE [2],90%
same,pest or weed control at 80 g/ha,AMARE [2]; 80 g/ha,100%
same,pest or weed control at 80 g/ha,"AVEFA; 80 g/ha, pre-emergence",90%
same,pest or weed control at 20 g/ha,AVEFA; [22],80%
same,pest or weed control at 80 g/ha,ALOMY [3]; [23],90%
same,pest or weed control at 20 g/ha,"ALOMY [3]; Alopecurus myosuroides, 504 h, 20 g/ha, scored visually after 3 weeks, 100% = plants have died, 0% = like control plants",90%
same,pest or weed control at 80 g/ha,ABUTH [4]; [24],100%
same,pest or weed control at 20 g/ha,"ABUTH [4]; Abutilon theophrasti, 504 h, dosage 20 g/ha, scored visually after 3 weeks vs untreated controls, 100% = plants have died, 0% = like control plants, read-out: Pre-emergence action against ABUTH (herbicidal activity in percent)",90%
same,pest or weed control at 20 g/ha,MATIN [5]; [25],80%
same,pest or weed control at 5 g/ha,"PHBPU [6]; Ipomoea purpurea, 504 h, dosage 5 g/ha",80%
same,pest or weed control at 20 g/ha,PHBPU [6]; [26],80%
same,pest or weed control at 20 g/ha,ECHCG [7]; [27],80%
same,pest or weed control at 5 g/ha,ALOMY [16],90%
same,pest or weed control at 20 g/ha,ALOMY [16],100%
same,pest or weed control at 5 g/ha,SETVI [17]; dosage 5 g/ha,100%
same,pest or weed control at 20 g/ha,SETVI [17],100%
same,pest or weed control at 80 g/ha,LOLRI; 80 g/ha,80%
same,pest or weed control at 20 g/ha,SETVI [18]; dosage 20 g/ha,90%
same,pest or weed control at 80 g/ha,SETVI [18],100%
same,pest or weed control at 20 g/ha,MATIN [10]; [25],90%
same,pest or weed control at 80 g/ha,MATIN [10]; [28],100%
same,pest or weed control at 20 g/ha,ABUTH [11]; [29],80%
same,pest or weed control at 20 g/ha,AMARE [12],100%
same,pest or weed control at 20 g/ha,VIOTR [19]; dosage 20 g/ha,100%
same,pest or weed control at 80 g/ha,VIOTR [19],100%
same,pest or weed control at 5 g/ha,VIOTR [20]; 5 g/ha,90%
same,pest or weed control at 20 g/ha,VIOTR [20],100%
same,pest or weed control at 80 g/ha,ECHCG [13]; 80 g/ha,100%
CCNC(=O)c1c(Br)ccc(C(=O)Nc2nnnn2C)c1Br [Example 1-343],pest or weed control at 20 g/ha,VERPE [15],80%
same,pest or weed control at 80 g/ha,"VERPE [1]; Veronica persica, 504 h",80%
same,pest or weed control at 20 g/ha,AMARE [2],100%
same,pest or weed control at 80 g/ha,AMARE [2]; 80 g/ha,100%
same,pest or weed control at 80 g/ha,"AVEFA; 80 g/ha, pre-emergence",80%
same,pest or weed control at 20 g/ha,AVEFA; [22],80%
same,pest or weed control at 80 g/ha,ALOMY [3]; [23],100%
same,pest or weed control at 80 g/ha,ABUTH [4]; [24],100%
same,pest or weed control at 20 g/ha,PHBPU [6]; [26],80%
same,pest or weed control at 5 g/ha,"ECHCG [7]; Echinochloa crus-galli, 504 h, dosage 5 g/ha",80%
same,pest or weed control at 20 g/ha,ECHCG [7]; [27],90%
same,pest or weed control at 5 g/ha,ALOMY [16],90%
same,pest or weed control at 20 g/ha,ALOMY [16],100%
same,pest or weed control at 20 g/ha,SETVI [17],100%
same,pest or weed control at 80 g/ha,LOLRI; 80 g/ha,80%
same,pest or weed control at 80 g/ha,SETVI [18],100%
same,pest or weed control at 80 g/ha,MATIN [10]; [28],100%
same,pest or weed control at 5 g/ha,"ABUTH [11]; Abutilon theophrasti, 504 h, dosage 5 g/ha",90%
same,pest or weed control at 20 g/ha,ABUTH [11]; [29],90%
same,pest or weed control at 20 g/ha,AMARE [12],100%
same,pest or weed control at 80 g/ha,VIOTR [19],100%
same,pest or weed control at 20 g/ha,VIOTR [20],80%
same,pest or weed control at 80 g/ha,ECHCG [13]; 80 g/ha,90%
